Patent US20210386792A1, “A METHOD FOR INCREASING POPULATION OF SPERMATOGONIAL STEM CELLS” (priority 2018, published 2021)

Assays:
Type in all cases: cell-based, mouse
TECs = assay: GDNF ELISA in conditioned media from TECs; conditions: for GDNF production in conditioned media of TECs after FGF-2 treatment: wild-type mouse TECs
Description: Testis, lung, or liver ECs were plated (10,000 cells ml^−1) on 12 well dishes coated with 0.1% gelatin and cultured for 24 hours. Conditioned media was harvested at 24 and 48 hours after FGF-2 (2 ng ml^−1, 20 ng ml^−1 and 50 ng ml^−1) treatment and analyzed by ELISA for GDNF (Promega GDNF Emax immunoassay system, #G7621) following the manufacturer's instruction. Statistics was analyzed using Graph Pad Prism. For quantification of Gdnf mRNA, total RNA was isolated from the cells using Direct-zol RNA MiniPrep (Zymo Research) and reverse transcribed using High Capacity cDNA Reverse Transcription Kit (Appliedbiosystems), according to the manufacturer's instructions. All gene expression levels were normalized to GAPDH mRNA levels.
FIG. 2. a. Quantication of GDNF by ELISA in conditioned media from TECs, LuECs and LiECs after treatment with the indicated concentration of FGF-2 for 2 days, n=3. Bar=100 μm. Data are presented as the mean±s.e.m. b. Representative brighteld (BF) and GFP images of 2D cultures of GFP+ SSCs co-cultured with STO cells or TECs plus exogenous GDNF and FGF-2 on days 1 and 8 after seeding. Quantication of stem cell numbers 8 days after co-culture with STO or TECs and the average colony area are shown on the right, n=3. Data are presented as the mean±s.e.m. Bar=100 μm. *P<0.05. c. Images of 2D co-cultures of GFP+Thy1.2+ SSCs with TECs and immunostained with the germ cell marker DDX4. Inset: bar=10 μm. d. The 3D spheroid co-cultures of GFP+Thy-1.2+ SSCs with TECs or LuECs were generated with Matrigel but no exogenous GDNF or FGF-2. GFP+ Spheroid co-cultures were immunostained with DDX4 (red), Oct4 (white) and DAPI (blue) at day 15. Quantication of the average diameter and total number of colonies is shown on the right; n=3. All data are presented as the mean±s.e.m. Bar=50 m, *P<0.05. **P<0.01. e. Representative BF images merged with GFP images of serially passaged GFP+Thy-1.2+ SSCs co-cultured with TECs at the indicated passage number (1st, 2nd, 3rd or 4th) or day (D). […]

NFATc1 and EGR-1 = assay: Nuclear translocation of NFATc1 and EGR-1 in TECs; conditions: TEC, 2 ng/ml FGF-2
EGR-1 = assay: Western blot of EGR-1 expression in LuECs; conditions: LuEC
From the text: FIG. 5. GDNF expression in TECs is regulated by CaN-NFAT signaling. a. Immunouorescence images of testis sections immunostained with the stem cell markers DDX4 and Oct4 and DAPI to stain DNA. Testes were harvested from 1-week-old or 4-week-old Euploid or Ts65Dn mice. Quantication of DDX4+ and Oct4+ cells relative to DAPI per high-powered eld (HPF) is shown on the right, ***P<0.0001. Bar=50 μm. Two-way ANOVA test. b. […] Values are mean±s.e.m. n=4. c. Quantication of GDNF levels by ELISA in conditioned media from murine TECs, LuEC and LiEC after 2 ngml-1 FGF-2 treatment in the presence or absence of CsA. Values are mean±s.e.m., n=4. d. H&E-stained cross-sections from testes of age-matched Euploid, Ts65Dn or Ts65Dn mice 5 weeks after implantation with GFP+ TECs isolated from syngeneic wild-type mice (Ts65Dn+GFP+ TECs). Red dotted line encircles mature sperm (yellow arrow) in the lumen of the seminiferous tubules. Immunouorescence images with GFP and DAPI to stain DNA of testis sections from Ts65Dn+GFP+TECs mice. e. Western blot analysis of EGR-1 protein expression in TECs and LuECs untreated or after FGF-2 treatment, expression of constitutively active NFATc1 (caNFATc1) or an empty vector control. Actin was probed as a loading control. f. Quantication of nuclear translocation of EGR1 and NFATc1 in TECs after treatment with conditioned media (CM), 2 ng ml-1 FGF-2±CsA. Values are mean±s.e.m. g. […]

fibroblast growth factor-2 [FGF-2]
GDNF expression in media of Fgfr1−/− TECs after FGF2 treatment (TECs; Fgfr1−/− TECs compared to Fgfr1+/+ wild-type TECs): no increase in GDNF expression
GDNF production in conditioned media of TECs after FGF-2 treatment (TECs): induced significant levels of GDNF
GDNF production in conditioned media of TECs after FGF-2 treatment (TECs; listed as FGF2): stimulated significant GDNF production
nuclear localization of EGR1 (NFATc1 and EGR-1): increased
nuclear localization of NFATc1 (NFATc1 and EGR-1): increased
EGR-1 expression after FGF-2 treatment (EGR-1): not
